pIC50: −log10 of the molar value.
Experiments:
[1] = test system: Human immunodeficiency virus 1; test: Antiviral activity against HIV1 infected in human JC53-BL cells after 3 days by luciferase reporter gene assay; format: functional, organism-based; conditions: Human immunodeficiency virus 1, JC53BL, 72 h
[2] = target: C-C chemokine receptor type 5 (Homo sapiens, UniProt P51681); test: Antagonist activity at human CCR5; format: functional
[3] = Apparent permeability from apical to basolateral side of human Caco-2 cells after 21 days

Chain of C-C chemokine receptor type 5 (P51681 whole entry): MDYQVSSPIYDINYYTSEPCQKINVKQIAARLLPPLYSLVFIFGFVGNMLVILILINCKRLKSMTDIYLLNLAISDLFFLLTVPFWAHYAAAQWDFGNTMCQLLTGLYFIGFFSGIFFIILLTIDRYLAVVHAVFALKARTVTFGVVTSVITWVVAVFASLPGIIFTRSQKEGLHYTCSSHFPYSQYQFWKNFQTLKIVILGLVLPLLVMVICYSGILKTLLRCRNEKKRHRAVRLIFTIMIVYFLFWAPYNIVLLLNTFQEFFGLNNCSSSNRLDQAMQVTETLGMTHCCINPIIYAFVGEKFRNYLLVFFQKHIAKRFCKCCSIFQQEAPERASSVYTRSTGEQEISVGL

| Compound | pIC50 [1] | pIC50 [2] | Papp A→B [3] [×10⁻⁶ cm/s] |
| --- | --- | --- | --- |
| Cc1ccnc(C)c1C(=O)N1C[C@H]2CN(CCC3(c4ccccc4)CN(C(=O)C4CC(F)(F)C4)C3)C[C@H]2C1 | 7.26 | 7.22 |  |
| Cc1cc(C#N)nc(C)c1C(=O)N1C[C@H]2CN(CCC3(c4ccccc4)CN(C(=O)C4CCC(F)(F)CC4)C3)C[C@H]2C1 | 8.70 | 7.77 | 0.53 |
| Cc1cc(C(F)(F)F)nc(C)c1C(=O)N1C[C@H]2CN(CCC3(c4ccccc4)CN(C(=O)C4CC(F)(F)C4)C3)C[C@H]2C1 | 8.40 | 7.66 | 1.59 |
| Cc1nc(C(F)(F)F)nc(C)c1C(=O)N1C[C@H]2CN(CCC3(c4ccccc4)CN(C(=O)C4CCOC4)C3)C[C@H]2C1 (stereo partly specified) | 7.23 | 7.42 |  |
| Cc1cc(C#N)nc(C)c1C(=O)N1C[C@H]2CN(CCC3(c4ccccc4)CCN(C(=O)C4CCCC4)C3)C[C@H]2C1 (stereo partly specified) | 7.62 | 7.34 | 2.55 |
| Cc1cc(C#N)nc(C)c1C(=O)N1C[C@H]2CN(CCC3(c4ccccc4)CCN(C(=O)C(C)(C)C)C3)C[C@H]2C1 (stereo partly specified) |  | 7.16 |  |
| Cc1ncnc(C)c1C(=O)N1C[C@H]2CN(CCC3(c4cccc(F)c4)CCN(C(=O)CC(C)(C)C)CC3)C[C@H]2C1 | 6.35 |  |  |
| Cc1ncnc(C)c1C(=O)N1C[C@H]2CN(CCC3(c4ccccc4)CN(C(=O)C(C)(C)CO)C3)C[C@H]2C1 | 6.89 | 7.25 |  |
| Cc1ncnc(C)c1C(=O)N1C[C@H]2CN(CCC3(c4ccccc4)CN(S(=O)(=O)C4CCCC4)C3)C[C@H]2C1 | 7.40 | 7.57 |  |
| Cc1nc(C(F)(F)F)nc(C)c1C(=O)N1C[C@H]2CN(CCC3(c4ccccc4)CN(C(=O)C4CC(F)(F)C4)C3)C[C@H]2C1 | 7.64 | 7.18 |  |
| Cc1ccnc(C)c1C(=O)N1C[C@H]2CN(CCC3(c4ccccc4)CN(C(=O)C4CCC(F)(F)CC4)C3)C[C@H]2C1 | 7.92 | 7.42 |  |
| Cc1ncnc(C)c1C(=O)N1C[C@H]2CN(CCC3(c4cccc(F)c4)CCN(C(=O)C(C)(C)C)CC3)C[C@H]2C1 | 7.17 | 7.23 | 2.98 |
| Cc1ncnc(C)c1C(=O)N1C[C@H]2CN(CCC3(c4ccccc4)CCN(C(=O)C4CCCC4)C3)C[C@H]2C1 (stereo partly specified) | 6.45 | 6.94 |  |
| Cc1cc(C#N)nc(C)c1C(=O)N1C[C@H]2CN(CCC3(c4cccc(F)c4)CCN(C(=O)C(C)(C)C)CC3)C[C@H]2C1 | 7.74 | 7.82 | 2.73 |
| Cc1ncnc(C)c1C(=O)N1C[C@H]2CN(CCC3(c4ccccc4)CN(C(=O)C(C)(C)C)C3)C[C@H]2C1 | 7.11 | 7.57 |  |
| Cc1ncnc(C)c1C(=O)N1C[C@H]2CN(CCC3(c4ccccc4)CN(C(=O)C4CCCC4)C3)C[C@H]2C1 | 7.22 | 7.17 |  |
| Cc1ncnc(C)c1C(=O)N1C[C@H]2CN(CCC3(c4cccc(F)c4)CCN(C(=O)C(C)C)CC3)C[C@H]2C1 | < 6.40 | 6.99 |  |

The remaining lines, values ahead:

| pIC50 [1] | pIC50 [2] | Papp A→B [3] [×10⁻⁶ cm/s] | Compound |
| --- | --- | --- | --- |
| 8.40 | 7.52 |  | Cc1nc(C(F)(F)F)nc(C)c1C(=O)N1C[C@H]2CN(CCC3(c4ccccc4)CN(C(=O)C4CCC(F)(F)CC4)C3)C[C@H]2C1 |
| 6.69 | 7.26 |  | Cc1ncnc(C)c1C(=O)N1C[C@H]2CN(CCC3(c4ccccc4)CN(C(=O)C4CCOC4)C3)C[C@H]2C1 (stereo partly specified) |
| 7.28 | 7.55 |  | Cc1ncnc(C)c1C(=O)N1C[C@H]2CN(CCC3(c4ccccc4)CN(C(=O)CC4CCCC4)C3)C[C@H]2C1 |
| 7.41 | 7.52 |  | Cc1ncnc(C)c1C(=O)N1C[C@H]2CN(CCC3(c4ccccc4)CN(C(=O)C4CC(F)(F)C4)C3)C[C@H]2C1 |
|  | 6.78 |  | Cc1ncnc(C)c1C(=O)N1C[C@H]2CN(CCC3(c4cccc(F)c4)CCN(C(=O)C(C)(C)CO)CC3)C[C@H]2C1 |
| 7.68 | 7.55 |  | Cc1ncnc(C)c1C(=O)N1C[C@H]2CN(CCC3(c4ccccc4)CN(C(=O)C4CCC(F)(F)CC4)C3)C[C@H]2C1 |
| 7.21 | 7.68 | 1.72 | Cc1cc(C(F)(F)F)nc(C)c1C(=O)N1C[C@H]2CN(CCC3(c4ccccc4)CN(C(=O)C4CCC(F)(F)CC4)C3)C[C@H]2C1 |
|  | < 6.30 |  | CC(=O)N1CCC(CCN2C[C@@H]3CN(C(=O)c4c(C)ncnc4C)C[C@@H]3C2)(c2cccc(F)c2)CC1 |
| 8.40 | 7.62 | 0.44 | Cc1cc(C#N)nc(C)c1C(=O)N1C[C@H]2CN(CCC3(c4ccccc4)CN(C(=O)C4CC(F)(F)C4)C3)C[C@H]2C1 |
|  | 6.62 |  | Cc1ncnc(C)c1C(=O)N1C[C@H]2CN(CCC3(c4ccccc4)CCN(C(=O)C(C)(C)C)C3)C[C@H]2C1 (stereo partly specified) |

Reference: ChEMBL document CHEMBL1153211, “Evaluation of secondary amide replacements in a series of CCR5 antagonists as a means to increase intrinsic membrane permeability. Part 1: Optimization of gem-disubstituted azacycles” (Bioorg Med Chem Lett, 2010)
